The text below walks through data of ChEMBL document CHEMBL5252601, “Hydroxy-xanthones as promising antiviral agents: Synthesis and biological evaluation against human coronavirus OC43” (Bioorg Med Chem Lett, 2023).

In data set [1] the test system is BHK-21. Kind of data set: Cytotoxicity against hamster BHK-21 cells assessed as reduction in cell viability at 10 uM measured after 3 days. It counts as toxicity, cell-based, Mesocricetus auratus. The note with it: bhk-21, 72 h, time 3 day.
For data set [2], the system named is Human coronavirus OC43. Briefly: Antiviral activity against HCoV-OC43 infected in hamster BHK-21 cells assessed as inhibition of viral infectivity per ml at 10 uM measured after 3 days. The format is functional. As to conditions: time 3 day.

`Cc1ccc2oc3cc(O)cc(O)c3c(=O)c2c1`: the Activity entry in data set [1] is given as “>= 85%”. Also, the “log(activity)” value in data set [2] came out at 2.79.
For `COc1ccc2c(=O)c3c(O)cc(O)cc3oc2c1`, the Activity result in data set [1] was “>= 85%”. For the same molecule, the “log(activity)” value in data set [2] is on record as 2.67.
For `O=c1c2ccccc2oc2cc(O)cc(O)c12` the same measures were “>= 85%” and 2.5.
For the molecule `Cc1ccc2c(=O)c3c(O)cc(O)cc3oc2c1`, the Activity entry in data set [1] is “>= 85%”. Besides, the “log(activity)” value in data set [2] was determined as 2.42.
Regarding `COc1ccc2oc3cc(O)cc(O)c3c(=O)c2c1`, the Activity entry in data set [1] was “>= 85%”. For the same molecule, the “log(activity)” value in data set [2] worked out at 2.67.
Turning to `O=c1c2ccc(O)cc2oc2cccc(O)c12`, in data set [1], the Activity result was “>= 85%”. In data set [2], the “log(activity)” value is 2.2.
`O=c1c2c(O)cccc2oc2cc(O)cc(O)c12`: the Activity result in data set [1] is “>= 85%”. In addition, in data set [2], the “log(activity)” value worked out at 2.
`O=C(c1ccccc1O)c1ccc(O)cc1O`: the Activity entry in data set [1] is reported as “>= 85%”. For the same molecule, the “log(activity)” value in data set [2] is on record as 2.45.
As for `O=c1c2cc(F)ccc2oc2cc(O)cc(O)c12`, in data set [1], the Activity result is recorded as “>= 85%”. Also, the “log(activity)” value in data set [2] was 2.38.
Consider `O=C(c1ccccc1O)c1ccc(O)c(O)c1O`, for which the Activity result in data set [1] is reported as “>= 85%”. In data set [2], the “log(activity)” value was 1.95.
The corresponding values for `O=c1c2ccccc2oc2c(O)c(O)ccc12` [3,4-DIHYDROXYXANTHONE] are “>= 85%” and 1.95.
The corresponding values for `O=c1c2cc(O)c(O)cc2oc2cc(O)c([C@@H]3O[C@H](CO)[C@@H](O)[C@H](O)[C@H]3O)c(O)c12` [MANGIFERIN] are “>= 85%” and 3.
`O=c1c2ccccc2oc2ccccc12` [XANTHONE]: in data set [1], the Activity entry is given as “>= 85%”. Moreover, the “log(activity)” value in data set [2] was 2.04.
